One assay addresses Cathepsin B (Rattus norvegicus, UniProt P00787). Nature of the assay: In vitro inhibition of cathepsin B. Type of assay: biochemical. The note with it: r rat cathepsin B; substrate N-CBZ-Phe-Arg-AMC; pH 5.1; 10 min incubation at room temperature. The protocol:
TEST EXAMPLE 1 In Vitro Assay Procedure for Cathepsin B The compounds of formula I were tested for inhibition of cathepsin B using the known method (A. J. Barret et al., Biochem. J. 1982, 201, 189-198). […] After 10 min of incubation at room temperature, a 20 μl of 5 mM substrate (N-CBZ-Phe-Arg-AMC, dissolved in DMSO) was added to initiate reaction. Reading is followed up for 10 min at the fluoroscan reader (excitation at 380 nm emission at 460 nm).

The target of another assay is Cathepsin L (Rattus norvegicus, UniProt P07154). Briefly: In vitro inhibition of cathepsin L. Particulars: r rat cathepsin L; substrate N-CBZ-Phe-Arg-AMC; pH 5.0; 10 min incubation at room temperature. Type of assay: biochemical. On the procedure:
TEST EXAMPLE 2 In Vitro Assay Procedure for Cathepsin L […] After 10 min of incubation at room temperature, a 20 μl of 1 mM substrate (N-CBZ-Phe-Arg-AMC, dissolved in DMSO) was added to initiate reaction. Reading is followed up for 10 min at the fluoroscan reader (excitation at 380 nm emission at 460 nm).

Chain of Cathepsin L (P07154 114-334): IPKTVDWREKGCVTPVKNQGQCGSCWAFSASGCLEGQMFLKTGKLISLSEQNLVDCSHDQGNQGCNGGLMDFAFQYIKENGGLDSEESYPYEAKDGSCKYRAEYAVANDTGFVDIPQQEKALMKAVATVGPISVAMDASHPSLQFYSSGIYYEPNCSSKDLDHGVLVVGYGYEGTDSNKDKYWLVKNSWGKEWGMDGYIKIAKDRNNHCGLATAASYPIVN
Chain of Cathepsin B (P00787 80-339): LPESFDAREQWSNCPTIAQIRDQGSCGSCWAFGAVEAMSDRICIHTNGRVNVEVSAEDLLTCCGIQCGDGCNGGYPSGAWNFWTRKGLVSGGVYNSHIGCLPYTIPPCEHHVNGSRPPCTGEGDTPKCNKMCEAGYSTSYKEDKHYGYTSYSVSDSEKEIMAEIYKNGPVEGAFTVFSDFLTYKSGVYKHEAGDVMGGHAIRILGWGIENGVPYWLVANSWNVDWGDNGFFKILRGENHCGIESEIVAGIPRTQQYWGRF

For orientation: IC50 means the concentration that inhibits the measured activity by half. Higher therefore signals weaker potency in that assay. As to `O=C(N[C@@H](Cc1ccccc1)C(=O)N[C@@H]1C(=O)N2CCS[C@@H]12)OCc1ccccc1` [Example 1, (5S,6R)-6-(2S-2-benzyloxycarbonylamino-2-phenylmethyl-acetamido)-4-thia-1-azabicyclo [3,2,0] heptan-7-one], the IC50 is more than 50 µM on Cathepsin B and 6.68 µM against Cathepsin L.

`O=C(N[C@@H](Cc1ccccc1)C(=O)N[C@@H]1C(=O)N2CCS(=O)(=O)[C@@H]12)OCc1ccccc1` [Example 2, (5S,6R)-6-(2S-2-benzyloxycarbonylamino-2-phenylmethyl-acetamido)-4,4-dioxo-4-thia-1-azabicyclo [3,2,0] heptan-7-one]: the IC50 on Cathepsin B is 0.35 µM; at Cathepsin L, 0.0014 µM.

Consider `O=C(N[C@@H](Cc1ccccc1)C(=O)N[C@@H]1C(=O)N2CCS(=O)(=O)[C@H]12)OCc1ccccc1` [Example 3, (5R,6R)-6-(2S-2-benzyloxycarbonylamino-2-phenylmethyl-acetamido)-4,4-dioxo-4-thia-1-azabicyclo [3,2,0] heptan-7-one], for which the figures for the IC50 against Cathepsin B and at Cathepsin L were 6.01 µM and 0.0096 µM, respectively. `O=C(CCc1ccccc1)N[C@@H](CC1CCCCC1)C(=O)N[C@@H]1C(=O)N2CCS[C@@H]12` [Example 4, (5S,6R)-6-{2S-2-(3-phenylpropionoyl)amino-2-cyclohexylmethyl-acetamido}-4-thia-1-azabicyclo [3,2,0] heptan-7-one]: the half-maximal inhibitory concentration (IC50) against Cathepsin B and at Cathepsin L was more than 50 µM in each case. In the case of `O=C(CCc1ccccc1)N[C@@H](CC1CCCCC1)C(=O)N[C@@H]1C(=O)N2CCS(=O)(=O)[C@@H]12` [Example 5, (5S,6R)-6-{2S-2-(3-phenylpropionoyl)amino-2-cyclohexylmethyl-acetamido}-4,4-dioxo-4-thia-1-azabicyclo [3,2,0] heptan-7-one], the IC50 on Cathepsin B turned out to be 0.43 µM; against Cathepsin L, 0.0007 µM. For `O=C(CCc1ccccc1)N[C@@H](Cc1ccc2ccccc2c1)C(=O)N[C@@H]1C(=O)N2CCS[C@@H]12` [Example 6, (5S,6R)-6-{2S-2-(3-phenylpropionoyl)amino-2-(2-naphthyl)methyl-acetamido}-4-thia-1-azabicyclo [3,2,0] heptan-7-one] the same measures were 10.5 µM and 0.43 µM. For `O=C(CCc1ccccc1)N[C@@H](Cc1ccc2ccccc2c1)C(=O)N[C@@H]1C(=O)N2CCS(=O)(=O)[C@@H]12` [Example 7, (5S,6R)-6-{2S-2-(3-phenylpropionoyl)amino-2-(2-naphthyl)methyl-acetamido}-4,4-dioxo-4-thia-1-azabicyclo [3,2,0] heptan-7-one] the same measures were 0.39 µM and 0.003 µM. Taken in the same sequence, the figures for `O=C(CCc1ccccc1)N[C@@H](Cc1cccs1)C(=O)N[C@@H]1C(=O)N2CCS[C@@H]12` [Example 8, (5S,6R)-6-{2S-2-(3-phenylpropionoyl)amino-2-(2-thienyl)methyl-acetamido}-4-thia-1-azabicyclo [3,2,0] heptan-7-one] were more than 50 µM and 11.6 µM. As for `O=C(CCc1ccccc1)N[C@@H](Cc1cccs1)C(=O)N[C@@H]1C(=O)N2CCS(=O)(=O)[C@@H]12` [Example 9, (5S,6R)-6-{2S-2-(3-phenylpropionoyl)amino-2-(2-thienyl)methyl-acetamido}-4,4-dioxo-4-thia-1-azabicyclo [3,2,0] heptan-7-one], the IC50 amounted to 0.43 µM on Cathepsin B and 0.003 µM on Cathepsin L. With `O=C(CCc1ccccc1)N[C@@H](Cc1cccc(F)c1)C(=O)N[C@@H]1C(=O)N2CCS[C@@H]12` [Example 10, (5S,6R)-6-{2S-2-(3-phenylpropionoyl)amino-2-(3-fluorophenyl)methyl-acetamido}4-4-thia-1-azabicyclo [3,2,0] heptan-7-one], the figures for the 50% inhibitory concentration (IC50) against Cathepsin B and against Cathepsin L were more than 50 µM and 11.3 µM, respectively. For the compound `O=C(CCc1ccccc1)N[C@@H](Cc1cccc(F)c1)C(=O)N[C@@H]1C(=O)N2CCS(=O)(=O)[C@@H]12` [Example 11, (5S,6R)-6-{2S-2-(3-phenylpropionoyl)amino-2-(3-fluorophenyl)methyl-acetamido}-4,4-dioxo-4-thia-1-azabicyclo [3,2,0] heptan-7-one], the results for the IC50 against Cathepsin B and against Cathepsin L were 1 µM and 0.0033 µM, respectively. Taken in the same sequence, the figures for `O=C(N[C@@H](Cc1cccnc1)C(=O)N[C@@H]1C(=O)N2CCS[C@@H]12)OCc1ccccc1` [Example 12, (5S,6R)-6-{2S-2-benzyloxycarbonylamino-2-(3-pyridyl)methyl-acetamido}-4-thia-1-azabicyclo [3,2,0] heptan-7-one] were more than 50 µM and 11.7 µM.

As for `O=C(N[C@@H](Cc1cccnc1)C(=O)N[C@@H]1C(=O)N2CCS(=O)(=O)[C@@H]12)OCc1ccccc1` [Example 13, (5S,6R)-6-{2S-2-benzyloxycarbonylamino-2-(3-pyridyl)methyl-acetamido}-4,4-dioxo-4-thia-1-azabicyclo [3,2,0] heptan-7-one], the IC50 is 1.3 µM against Cathepsin B and 0.0017 µM against Cathepsin L.

For `O=C(N[C@@H](Cc1ccccc1)C(=O)N[C@@H]1C(=O)N2CCCS[C@@H]12)OCc1ccccc1` [Example 14, (6S,7R)-7-(2S-2-benzyloxycarbonylamino-2-phenylmethyl-acetamido)-5-thia-1-azabicyclo [4,2,0] octan-8-one], the half-maximal inhibitory concentration (IC50) against Cathepsin B and on Cathepsin L was more than 50 µM in each case. Consider `O=C(N[C@@H](Cc1ccccc1)C(=O)N[C@@H]1C(=O)N2CCCS(=O)(=O)[C@@H]12)OCc1ccccc1` [Example 15, (6S,7R)-7-(2S-2-benzyloxycarbonylamino-2-phenylmethyl-acetamido)-5,5-dioxo-5-thia-1-azabicyclo [4,2,0] octan-8-one], for which the IC50 against Cathepsin B was more than 50 µM; on Cathepsin L, 2.12 µM. `O=C(N[C@@H](Cc1ccccc1)C(=O)N[C@@H]1C(=O)N2CCCS(=O)(=O)[C@H]12)OCc1ccccc1` [Example 16, (6R,7R)-7-(2S-2-benzyloxycarbonylamino-2-phenylmethyl-acetamido)-5,5-dioxo-5-thia-1-azabicyclo [4,2,0] octan-8-one] came in with an IC50 against Cathepsin B of more than 50 µM. With `O=C(N[C@@H](Cc1ccccc1)C(=O)N[C@@H]1C(=O)N2CC(O)CS[C@@H]12)OCc1ccccc1` (stereo partly drawn) [Example 17, (6S,7R)-7-(2S-2-benzyloxycarbonylamino-2-phenylmethyl-acetamido)-3-hydroxy-5-thia-1-azabicyclo [4,2,0] octan-8-one], the IC50 at Cathepsin B is more than 50 µM; against Cathepsin L, 2.19 µM. For `COC(=O)[C@@H]1N2C(=O)[C@@H](NC(=O)[C@H](Cc3ccccc3)NC(=O)OCc3ccccc3)[C@H]2S(=O)(=O)C1(C)C` [Example 18, Methyl (2S,5R,6R)-6-(2S-2-benzyloxycarbonylamino-2-phenylmethyl-acetamido)-3,3-dimethyl-7-oxo-4,4-dioxo4-thia-1-azabicyclo[3,2,0]heptane-2-carboxylate] the same measures were 28.2 µM and 1.74 µM. For `CC1(C)[C@H](C(=O)O)N2C(=O)[C@@H](NC(=O)[C@H](Cc3ccccc3)NC(=O)CCc3ccccc3)[C@H]2S1(=O)=O` [Example 19, (2S,5R,6R)-6-{2S-2-(3-phenylpropionoyl)amino-2-phenylmethyl-acetamido}-3,3-dimethyl-7-oxo-4,4-dioxo-4-thia-1-azabicyclo [3,2,0] heptane-2-carboxylic acid] the same measures were more than 50 µM and 6.77 µM. For `O=C(N[C@H](Cc1ccccc1)C(=O)N[C@@H]1C(=O)N2CCS(=O)(=O)[C@@H]12)OCc1ccccc1` [Example 20, (5S,6R)-6{2R-2-benzyloxycarbonylamino-2-phenylmethyl-acetamido}-4,4-dioxo4-thia-1-azabicyclo[3,2,0] heptan-7-one] the same measures were more than 50 µM and 0.044 µM. Turning to `O=C(N[C@@H](Cc1ccccc1)C(=O)N[C@@H]1C(=O)N2CC[S+]([O-])[C@@H]12)OCc1ccccc1` (stereo partly drawn) [Example 21, (5S,6R)-6-{2S-2-benzyloxycarbonylamino-2-phenylmethyl-acetamido}-4-oxo-4-thia-1-azabicyclo [3,2,0] heptan-7-one], the figures for the IC50 against Cathepsin B and on Cathepsin L were 16.4 µM and 0.068 µM, respectively.

The record behind these values is US6232305A, “Substituted amino bicyclic-β-lactam penam and cepham derivatives as cysteine protease inhibitors” (Naeja Pharmaceutical Inc., priority 1998, dated 2001).
